Reference: article PMC7316994, “In Vitro Pharmacological Profile of a New Small Molecule Bradykinin B2 Receptor Antagonist” (Frontiers in Pharmacology, 2020)
Entries after “also recorded” stand apart in the source; their conditions may differ.

Columns and labels:
[1] = target: Adenosine A1 (Homo sapiens, UniProt P30542); experiment: radioligand binding (Table S2); details: [3H] DPCPX, Human recombinant CHO cells
[2] = target: T1, Histamine H1 (Homo sapiens, UniProt P35367); experiment: radioligand binding (Table S2); details: [3H] Pyrilamine, Human recombinant HEK-293 cells
T1 construct: host or cells: HEK-293 cells

[3] = target: T2, Gonadotropin-releasing hormone (Homo sapiens, UniProt P30968); experiment: radioligand binding (Table S2); details: [125I] [D-Trp6]-LH-RH, Human recombinant Chem-1 cells
T2 construct: host or cells: Chem-1 cells

[4] = target: Adrenergic α1A (Homo sapiens, UniProt P35348); experiment: radioligand binding (Table S2); details: read-out: % Inhibition @ 10 µM
Adrenergic α1A, sequence (P35348 whole entry): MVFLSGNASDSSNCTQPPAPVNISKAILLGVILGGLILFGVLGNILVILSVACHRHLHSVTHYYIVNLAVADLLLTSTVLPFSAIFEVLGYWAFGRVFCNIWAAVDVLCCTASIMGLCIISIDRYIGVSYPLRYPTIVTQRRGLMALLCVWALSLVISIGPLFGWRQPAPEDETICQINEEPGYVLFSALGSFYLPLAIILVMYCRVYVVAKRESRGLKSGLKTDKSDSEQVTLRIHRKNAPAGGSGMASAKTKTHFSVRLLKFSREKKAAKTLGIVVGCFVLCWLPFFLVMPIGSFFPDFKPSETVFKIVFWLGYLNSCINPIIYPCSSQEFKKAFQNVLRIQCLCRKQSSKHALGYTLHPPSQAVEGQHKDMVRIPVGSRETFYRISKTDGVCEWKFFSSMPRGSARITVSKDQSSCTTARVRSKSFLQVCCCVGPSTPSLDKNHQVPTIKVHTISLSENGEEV

[5] = tested on: panel of G protein-coupled receptors (GPCRs), ion channels, enzymes and transporters
[6] = target: T3, Benzodiazepine BZD (peripheral) (Rattus norvegicus, UniProt P16257); experiment: radioligand binding (Table S2)
T3 construct: tissue Eurofins; host or cells: rat heart

[7] = target: Nicotinic acetylcholine α1, bungarotoxin (Homo sapiens, UniProt P02708+P07510+Q07001); experiment: biochemical; assay type: binding; details: read-out: % Inhibition @ 10 µM
[8] = target: T4, Neuropeptide Y2 (Homo sapiens, UniProt P49146); experiment: radioligand binding (Table S2); details: [125I] Peptide YY, KAN-TYS cells
T4 construct: KAN-TYS cells; host or cells: KAN-TYS cells
T4 sequence (P49146 whole entry): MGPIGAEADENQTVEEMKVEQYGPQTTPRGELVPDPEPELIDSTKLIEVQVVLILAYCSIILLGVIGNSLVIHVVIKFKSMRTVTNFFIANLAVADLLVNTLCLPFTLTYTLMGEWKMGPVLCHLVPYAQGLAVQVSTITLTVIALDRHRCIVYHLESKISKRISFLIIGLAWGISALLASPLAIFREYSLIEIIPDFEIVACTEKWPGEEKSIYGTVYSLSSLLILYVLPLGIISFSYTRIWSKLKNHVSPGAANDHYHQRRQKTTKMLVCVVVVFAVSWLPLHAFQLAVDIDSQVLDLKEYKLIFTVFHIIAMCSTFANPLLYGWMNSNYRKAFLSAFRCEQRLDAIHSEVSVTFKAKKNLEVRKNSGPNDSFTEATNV

[9] = target: Neurokinin NK1 (Homo sapiens, UniProt P25103); assay type: cell-based
Neurokinin NK1, sequence (P25103 whole entry): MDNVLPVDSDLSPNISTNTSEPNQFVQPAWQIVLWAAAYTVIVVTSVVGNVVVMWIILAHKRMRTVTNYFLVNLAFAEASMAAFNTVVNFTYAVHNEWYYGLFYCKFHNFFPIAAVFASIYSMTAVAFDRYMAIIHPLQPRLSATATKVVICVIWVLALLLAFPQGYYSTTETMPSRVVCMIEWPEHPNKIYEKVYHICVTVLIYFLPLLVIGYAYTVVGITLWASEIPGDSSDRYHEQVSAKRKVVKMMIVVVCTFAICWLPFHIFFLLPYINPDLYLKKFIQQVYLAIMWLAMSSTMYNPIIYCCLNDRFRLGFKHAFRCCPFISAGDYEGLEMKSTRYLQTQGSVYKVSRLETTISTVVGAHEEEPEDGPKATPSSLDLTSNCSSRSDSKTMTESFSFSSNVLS

[10] = target: T5, Neuropeptide Y1 (Homo sapiens, UniProt P25929); experiment: radioligand binding (Table S2); details: [125I] Peptide YY, SK-N-MC cells (endogenous)
T5 construct: (endogenous); host or cells: SK-N-MC cells

[11] = target: T6, Platelet-activating factor PAF (Homo sapiens, UniProt P25105); experiment: radioligand binding (Table S2); details: [3H] C16-PAF, Human recombinant CHO cells
T6 construct: host or cells: CHO cells

[12] = target: T7, Opioid nociceptin NOP (ORL1) (Homo sapiens, UniProt P41146); experiment: radioligand binding (Table S2); details: [3H] Nociceptin, Human recombinant HEK-293 cells
T7 construct: host or cells: HEK-293 cells
T7 sequence (P41146 whole entry): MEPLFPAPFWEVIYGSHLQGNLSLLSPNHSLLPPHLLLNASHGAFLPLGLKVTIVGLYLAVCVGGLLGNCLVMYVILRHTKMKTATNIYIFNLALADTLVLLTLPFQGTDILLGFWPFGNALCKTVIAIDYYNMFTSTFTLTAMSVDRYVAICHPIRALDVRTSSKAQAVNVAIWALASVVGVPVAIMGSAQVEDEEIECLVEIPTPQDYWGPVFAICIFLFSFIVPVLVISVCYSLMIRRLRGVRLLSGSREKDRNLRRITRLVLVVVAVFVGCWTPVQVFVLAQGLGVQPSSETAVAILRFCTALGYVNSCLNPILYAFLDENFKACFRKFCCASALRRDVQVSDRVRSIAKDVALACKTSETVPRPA

[13] = target: T8, COX2 (Homo sapiens, UniProt P35354); experiment: enzyme assay (Table S2); assay type: biochemical; details: Arachidonic acid (2 µM) + ADHP, Fluorimetry
T8 construct: Eurofins (assay provider); host or cells: Sf9 cells
T8 sequence (P35354 18-604): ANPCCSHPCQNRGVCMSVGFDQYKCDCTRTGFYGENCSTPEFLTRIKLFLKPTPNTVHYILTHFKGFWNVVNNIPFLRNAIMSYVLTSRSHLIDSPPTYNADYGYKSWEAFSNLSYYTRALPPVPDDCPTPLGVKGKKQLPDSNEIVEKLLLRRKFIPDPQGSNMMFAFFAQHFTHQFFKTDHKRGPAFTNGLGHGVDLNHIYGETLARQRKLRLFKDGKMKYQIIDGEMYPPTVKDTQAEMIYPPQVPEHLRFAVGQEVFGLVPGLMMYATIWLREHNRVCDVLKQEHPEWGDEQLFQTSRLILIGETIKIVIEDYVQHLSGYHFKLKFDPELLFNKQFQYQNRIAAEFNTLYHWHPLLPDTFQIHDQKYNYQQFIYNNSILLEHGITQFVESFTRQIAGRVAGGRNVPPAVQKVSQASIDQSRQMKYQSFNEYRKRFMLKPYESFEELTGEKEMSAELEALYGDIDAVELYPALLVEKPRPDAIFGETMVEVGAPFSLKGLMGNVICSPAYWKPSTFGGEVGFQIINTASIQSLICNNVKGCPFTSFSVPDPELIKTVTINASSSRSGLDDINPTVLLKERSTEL

[14] = target: T9, Prostacyclin IP (PGI2) (Homo sapiens, UniProt P43119); experiment: radioligand binding (Table S2); details: [3H] Iloprost, Human recombinant HEK-293 cells
T9 construct: host or cells: HEK-293 cells

[15] = tested on: Potassium channel KATP; experiment: radioligand binding (Table S2); details: [3H] Glibenclamide, Rat cerebral cortex
[16] = target: T10, Urotensin UT (Homo sapiens, UniProt Q9UKP6); experiment: radioligand binding (Table S2); details: [125I] Urotensin-II, Human recombinant CHO cells
T10 construct: host or cells: CHO cells
T10 sequence (Q9UKP6 whole entry): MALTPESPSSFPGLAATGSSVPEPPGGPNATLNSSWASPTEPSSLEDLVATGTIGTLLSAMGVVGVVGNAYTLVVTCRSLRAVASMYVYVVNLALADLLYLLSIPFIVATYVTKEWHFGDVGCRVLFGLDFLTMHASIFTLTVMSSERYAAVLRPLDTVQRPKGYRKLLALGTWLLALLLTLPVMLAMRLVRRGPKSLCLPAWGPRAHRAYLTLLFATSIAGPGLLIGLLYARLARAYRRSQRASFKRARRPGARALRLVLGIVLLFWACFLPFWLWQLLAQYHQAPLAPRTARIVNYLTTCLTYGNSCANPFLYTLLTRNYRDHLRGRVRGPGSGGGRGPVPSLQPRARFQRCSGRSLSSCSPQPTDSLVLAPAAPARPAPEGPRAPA

[17] = target: T11, Dopamine D3 (Homo sapiens, UniProt P35462); experiment: radioligand binding (Table S2); details: [3H] Methylspiperone, Human recombinant CHO cells
T11 construct: host or cells: CHO cells
T11 sequence (P35462 whole entry): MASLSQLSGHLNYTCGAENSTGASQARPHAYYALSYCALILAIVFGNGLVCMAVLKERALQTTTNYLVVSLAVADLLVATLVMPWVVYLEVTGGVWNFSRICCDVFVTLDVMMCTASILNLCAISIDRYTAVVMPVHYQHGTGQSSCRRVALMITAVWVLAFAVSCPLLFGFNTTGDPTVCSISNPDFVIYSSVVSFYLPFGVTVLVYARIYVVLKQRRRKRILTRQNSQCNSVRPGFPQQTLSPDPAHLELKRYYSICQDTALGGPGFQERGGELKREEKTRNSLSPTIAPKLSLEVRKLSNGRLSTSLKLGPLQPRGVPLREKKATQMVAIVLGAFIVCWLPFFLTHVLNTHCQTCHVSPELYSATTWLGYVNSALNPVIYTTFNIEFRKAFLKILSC

[18] = tested on: Gamma-aminobutyric acid GABAA, muscimol, central; experiment: radioligand binding (Table S2); details: [3H] Muscimol, Wistar rat brain (minus cerebellum)
[19] = target: Adrenergic α2A (Homo sapiens, UniProt P08913); experiment: radioligand binding (Table S2); details: read-out: % Inhibition @ 10 µM
[20] = target: T12, Leukotriene B4 receptor BLT1 (Homo sapiens, UniProt Q15722); experiment: radioligand binding (Table S2); details: [3H] LTB4, Human recombinant CHO cells
T12 construct: host or cells: CHO cells
T12 sequence (Q15722 whole entry): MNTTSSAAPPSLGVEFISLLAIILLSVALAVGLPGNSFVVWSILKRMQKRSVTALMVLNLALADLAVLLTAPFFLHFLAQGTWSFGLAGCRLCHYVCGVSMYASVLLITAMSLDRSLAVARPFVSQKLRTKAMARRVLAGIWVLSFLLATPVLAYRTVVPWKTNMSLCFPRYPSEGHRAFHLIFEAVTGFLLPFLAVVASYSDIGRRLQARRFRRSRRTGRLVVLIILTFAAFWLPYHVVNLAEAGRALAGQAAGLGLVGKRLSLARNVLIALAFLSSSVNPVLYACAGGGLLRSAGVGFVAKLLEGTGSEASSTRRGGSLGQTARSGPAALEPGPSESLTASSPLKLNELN

[21] = target: T13, IRK (InsR) (Homo sapiens, UniProt P06213); experiment: enzyme assay (Table S2); assay type: biochemical; details: ATP + Ulight-PolyGAT (50 nM), LANCE
T13 construct: Eurofins (assay provider)

[22] = target: T14, Bradykinin B1 (Homo sapiens, UniProt P46663); experiment: radioligand binding (Table S2)
T14 construct: host or cells: CHO cells
T14 sequence (P46663 whole entry): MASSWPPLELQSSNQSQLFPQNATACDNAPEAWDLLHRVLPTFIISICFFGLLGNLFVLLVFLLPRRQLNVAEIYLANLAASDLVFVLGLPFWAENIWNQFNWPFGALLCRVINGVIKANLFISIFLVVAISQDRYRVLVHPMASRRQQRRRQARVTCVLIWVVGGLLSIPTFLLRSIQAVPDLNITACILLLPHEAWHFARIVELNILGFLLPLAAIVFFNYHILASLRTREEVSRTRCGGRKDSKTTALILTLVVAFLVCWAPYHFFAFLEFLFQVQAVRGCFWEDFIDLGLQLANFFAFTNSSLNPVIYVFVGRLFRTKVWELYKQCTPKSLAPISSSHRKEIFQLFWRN

[23] = target: Muscarinic M3 (Homo sapiens, UniProt P20309); experiment: radioligand binding (Table S2); details: read-out: % Inhibition @ 10 µM
Muscarinic M3, sequence (P20309 whole entry): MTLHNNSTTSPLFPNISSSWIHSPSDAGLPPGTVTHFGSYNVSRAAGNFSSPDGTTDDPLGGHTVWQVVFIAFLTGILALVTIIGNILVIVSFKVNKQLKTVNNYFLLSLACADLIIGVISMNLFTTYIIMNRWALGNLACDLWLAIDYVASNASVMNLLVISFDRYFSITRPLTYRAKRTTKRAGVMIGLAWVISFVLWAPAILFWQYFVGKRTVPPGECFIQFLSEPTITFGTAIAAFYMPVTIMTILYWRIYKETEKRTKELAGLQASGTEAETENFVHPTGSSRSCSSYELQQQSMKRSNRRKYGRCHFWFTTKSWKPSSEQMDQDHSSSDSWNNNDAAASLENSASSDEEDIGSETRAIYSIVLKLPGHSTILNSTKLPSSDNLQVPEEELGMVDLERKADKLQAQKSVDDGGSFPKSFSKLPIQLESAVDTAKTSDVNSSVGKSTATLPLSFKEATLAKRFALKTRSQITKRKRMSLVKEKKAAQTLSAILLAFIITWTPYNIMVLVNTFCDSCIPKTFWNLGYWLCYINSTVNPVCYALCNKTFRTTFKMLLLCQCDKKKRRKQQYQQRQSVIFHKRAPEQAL

[24] = target: T15, prostanoid TP receptor (Homo sapiens, UniProt P21731); experiment: umbilical vein, U-46619-induced contraction; details: Compound 2 10 μM; Compound 3 1 μM
T15 construct: endogenous human prostanoid TP receptors in the umbilical vein model; from tissue; host or cells: human umbilical vein rings
T15 sequence (P21731 whole entry): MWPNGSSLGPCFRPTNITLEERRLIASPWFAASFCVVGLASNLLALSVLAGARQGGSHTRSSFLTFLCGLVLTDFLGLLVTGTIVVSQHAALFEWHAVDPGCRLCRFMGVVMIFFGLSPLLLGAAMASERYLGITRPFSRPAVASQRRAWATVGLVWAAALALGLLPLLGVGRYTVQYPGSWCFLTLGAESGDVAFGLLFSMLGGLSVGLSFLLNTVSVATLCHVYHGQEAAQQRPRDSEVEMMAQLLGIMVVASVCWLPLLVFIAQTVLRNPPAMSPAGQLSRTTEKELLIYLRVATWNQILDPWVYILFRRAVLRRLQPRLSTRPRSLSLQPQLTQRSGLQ
From the text: The local ethics committee (CHU de Québec-Université Laval) had approved the project (File no. 2017-3720). Umbilical cords were obtained following elective caesarean sections; all problematic deliveries are excluded. Informed consent was obtained from the mothers. The cords were transported from the maternity ward to the laboratory in sterile Hank's balanced salt solution containing penicillin and streptomycin. Segments of umbilical veins were dissected carefully from the cords and a metal rod was inserted in the lumen. Excess connective tissue was excised and rings (2–3 mm wide) were cut. Rings of umbilical veins were suspended in 5-mL organ chambers containing oxygenated (95% O2, 5% CO2) and warmed (37°C) Krebs' solution between a metal hook and a thread loop. This solution had the following composition: NaCl 117.5 mM, KCl 4.7 mM, KH2PO4 1.2 mM, MgSO4 1.18 mM, CaCI2 2.5 mM, NaHCO3 25.0 mM, and D-glucose 5.5 mM. A baseline of one gram-weight was applied to these preparations. Changes of tension were recorded by using isometric transducers (model 52-9545, Harvard Bioscience, South Natick MA). Eight tissue baths are operated in parallel.
For this purpose, contractile responses to serotonin, acting on the 5-HT2A receptor, and U-46619, acting at the prostanoid TP receptor, were measured ([Rogines-Velo et al., 2002]; [Daray et al., 2003]).

[25] = target: T16, Prostanoid EP1 (Homo sapiens, UniProt P34995); experiment: radioligand binding (Table S2); details: [3H] Prostaglandin E2, Human recombinant HEK-293 cells
T16 construct: host or cells: HEK-293 cells

[26] = tested on: Benzodiazepine BZD (central); experiment: radioligand binding (Table S2); details: [3H] Flunitrazepam, Rat cerebral cortex

Cc1cc(-c2ncnn2C)c2cccc(OCc3c(Cl)cc(F)cc3[C@H](C)NC(=O)COC(F)F)c2n1 [Compound 3, (S)-N-(1-(3-chloro-5-fluoro-2-((2-methyl-4-(1-methyl-1H-1,2,4-triazol-5-yl)quinolin-8-yloxy)methyl)phenyl)ethyl)-2-(difluoromethoxy)acetamide]
inhibition at 10 µM [1]: 12.4%
inhibition at 10 µM [2]: 2.5%
inhibition at 10 µM [3]: 5%
inhibition at 10 µM [4]: 13.3%
inhibition of binding or functional activity at most targets ([5]; 10 μM, most targets incl. bradykinin B1 and angiotensin AT1, except V1a, CRF1, EP1, TP, NK1): < 50%
agonism at V1a, CRF1, TP, NK1, NK3 ([5]; full concentration-response curves, agonist mode): no agonism
inhibition at 10 µM [6]: 42.3%
inhibition at 10 µM [7]: -1%
inhibition at 10 µM [8]: -19.1%
% of reference agonist response @ 10 µM (agonist effect) ([9]; 10 µM, reference [Sar9,Met(O2)11]-SP (30 nM)): -5.2%
IC50 ([9]; [Sar9,Met(O2)11]-SP (1 nM), read-out: IC50 (µM), functional antagonism): 17 µM
Kb ([9]; [Sar9,Met(O2)11]-SP (1 nM), read-out: Kb (µM), functional antagonism): 2.4 µM
inhibition at 10 µM [10]: -2.6%
inhibition at 10 µM [11]: 25%
inhibition at 10 µM [12]: 14.5%
inhibition at 10 µM [13]: -18.8%
inhibition at 10 µM [14]: -5%
% Inhibition @ 10 µM [15]: 2.3%
inhibition at 10 µM [16]: 13.5%
inhibition at 10 µM [17]: 4.8%
% Inhibition @ 10 µM [18]: 12%
inhibition at 10 µM [19]: -1.7%
inhibition at 10 µM [20]: 16.7%
inhibition at 10 µM [21]: -17.3%
inhibition at 10 µM [22]: 0.5%
inhibition at 10 µM [23]: 4.2%
effect on U-46619-induced contraction [24]: Lack of antagonist effect; also recorded: no functional antagonism was observed
inhibition at 10 µM [25]: 80%
% Inhibition @ 10 µM [26]: -25.8%
